Experiments:
Experiment in all cases: relative viability (nuclei count vs DMSO), 5 days (fraction); higher = more cells survive
CUDC-101 + Linsitinib = compound: C#Cc1cccc(Nc2ncnc3cc(OC)c(OCCCCCCC(=O)NO)cc23)c1 [CUDC-101] + C[C@]1(O)C[C@@H](c2nc(-c3ccc4ccc(-c5ccccc5)nc4c3)c3c(N)nccn32)C1 [Linsitinib] (partner 1 µM)
In short: (§1)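 Lung cancer cell lines were pin-tool dosed in 1536-well plates on the day after seeding, with either a lone drug or a fixed anchor-drug dose plus five library-drug doses (not always all listed) in √10 steps. Nuclei were counted on 4× images after 5 days. Relative viability is the ratio of treated-well to vehicle-well nuclei counts, with each value a median of duplicate plates.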

[1] = compound: C1=CC=C2C(=C1)N=C(S2)C(C#N)C3=NC(=NC=C3)NCCC4=CN=CC=C4 + Cc1cc(Nc2cc(N3CCN(C)CC3)nc(Sc3ccc(NC(=O)C4CC4)cc3)n2)n[nH]1 [Tozasertib] (partner 0.1 µM)
In short: as §1

CUDC-101 + Phenformin = compound: C#Cc1cccc(Nc2ncnc3cc(OC)c(OCCCCCCC(=O)NO)cc23)c1 [CUDC-101] + N=C(N)NC(=N)NCCc1ccccc1 [Phenformin] (partner 250 µM)
In short: as §1

CUDC-101 + Navitoclax = compound: C#Cc1cccc(Nc2ncnc3cc(OC)c(OCCCCCCC(=O)NO)cc23)c1 [CUDC-101] + CC1(C)CCC(c2ccc(Cl)cc2)=C(CN2CCN(c3ccc(C(=O)NS(=O)(=O)c4ccc(N[C@H](CCN5CCOCC5)CSc5ccccc5)c(S(=O)(=O)C(F)(F)F)c4)cc3)CC2)C1 [Navitoclax] (partner 0.5 µM)
In short: as §1

Row | Cell Line | relative viability (CUDC-101 + Linsitinib; first compound 0.01 µM) | relative viability (CUDC-101 + Linsitinib; first compound 0.03162 µM) | relative viability (CUDC-101 + Linsitinib; first compound 0.1 µM) | relative viability (CUDC-101 + Linsitinib; first compound 0.3162 µM) | relative viability (CUDC-101 + Linsitinib; first compound 1 µM) | relative viability ([1]; first compound 0.005 µM) | relative viability ([1]; first compound 0.01581 µM) | relative viability ([1]; first compound 0.05 µM) | relative viability ([1]; first compound 0.1581 µM) | relative viability ([1]; first compound 0.5 µM) | relative viability (CUDC-101 + Phenformin; first compound 0.01 µM) | relative viability (CUDC-101 + Phenformin; first compound 0.03162 µM) | relative viability (CUDC-101 + Phenformin; first compound 0.1 µM) | relative viability (CUDC-101 + Phenformin; first compound 0.3162 µM) | relative viability (CUDC-101 + Phenformin; first compound 1 µM) | relative viability (CUDC-101 + Navitoclax; first compound 0.01 µM) | relative viability (CUDC-101 + Navitoclax; first compound 0.03162 µM) | relative viability (CUDC-101 + Navitoclax; first compound 0.1 µM) | relative viability (CUDC-101 + Navitoclax; first compound 0.3162 µM) | relative viability (CUDC-101 + Navitoclax; first compound 1 µM)
1 | LC-2-ad | 0.86 | 0.846 | 0.882 | 0.802 | 0.472 | 0.358 | 0.433 | 0.405 | 0.449 | 0.437 | 0.65 | 0.651 | 0.689 | 0.551 | 0.287 | 0.462 | 0.475 | 0.49 | 0.517 | 0.196
2 | LOU-NH91 | 0.978 | 0.634 | 0.564 | 0.599 | 0.453 | 0.652 | 0.606 | 0.599 | 0.689 | 0.59 | 0.736 | 0.56 | 0.534 | 0.587 | 0.393 | 0.773 | 0.505 | 0.473 | 0.466 | 0.251
3 | NCI-H2009 | 1.21 | 1.14 | 1.19 | 1.2 | 1.17 | 0.683 | 0.747 | 0.65 | 0.763 | 0.629 | 0.511 | 0.496 | 0.534 | 0.499 | 0.404 | 1.23 | 1.05 | 1.18 | 1.16 | 1.1
4 | NCI-H647 | 1.23 | 1.03 | 1.18 | 1.1 | 1.12 | 0.315 | 0.342 | 0.289 | 0.292 | 0.151 | 0.564 | 0.483 | 0.574 | 0.418 | 0.21 | 1.2 | 1.01 | 1.11 | 1.09 | 0.844
5 | NCI-H1666 | 0.747 | 0.741 | 0.759 | 0.84 | 0.519 | 0.642 | 0.615 | 0.541 | 0.651 | 0.617 | 0.601 | 0.535 | 0.574 | 0.575 | 0.552 | 1.07 | 0.796 | 1 | 1.04 | 0.548
6 | A-427 | 1.09 | 1.05 | 1.05 | 1.11 | 1.05 | 0.203 | 0.181 | 0.222 | 0.227 | 0.203 | 0.328 | 0.347 | 0.464 | 0.502 | 0.389 | 0.978 | 0.919 | 0.939 | 0.926 | 0.924
7 | NCI-H1395 | 1.13 | 1.05 | 0.963 | 1.07 | 0.888 | 0.684 | 0.69 | 0.755 | 0.713 | 0.756 | 0.495 | 0.435 | 0.462 | 0.466 | 0.456 | 1.26 | 1.13 | 1.46 | 1.75 | 0.991
8 | NCI-H1437 | 1.16 | 0.842 | 0.957 | 0.983 | 0.4 | 0.355 | 0.389 | 0.414 | 0.401 | 0.325 | 0.313 | 0.341 | 0.275 | 0.275 | 0.392 | 1.13 | 1.07 | 1.22 | 1.16 | 0.931
9 | HCC-366 | 0.658 | 0.344 | 0.741 | 0.607 | 0.528 | 0.102 | 0.087 | 0.075 | 0.0798 | 0.0706 | 0.604 | 0.555 | 0.704 | 0.667 | 0.64 | 1.1 | 0.875 | 1.06 | 1.08 | 0.844
10 | HCC-78 | 0.438 | 0.387 | 0.707 | 0.42 | 0.27 | 0.423 | 0.503 | 0.472 | 0.552 | 0.261 | 0.709 | 0.705 | 0.675 | 0.602 | 0.246 | 0.76 | 0.706 | 0.846 | 0.684 | 0.391
11 | HCC-44 | 0.549 | 0.617 | 0.678 | 0.675 | 0.555 | 0.949 |  | 0.883 | 0.927 | 0.548 | 0.163 | 0.185 | 0.22 | 0.185 | 0.139 | 0.836 | 0.933 | 0.877 | 1.06 | 0.827
12 | NCI-H1355 | 0.887 | 0.761 | 0.822 | 0.739 | 0.645 | 0.445 | 0.516 | 0.463 | 0.594 | 0.385 | 0.453 | 0.431 | 0.453 | 0.47 | 0.387 | 1.01 | 0.735 | 0.939 | 0.825 | 0.73
13 | NCI-H1993 | 0.755 | 0.756 | 0.738 | 0.772 | 0.705 | 0.625 | 0.657 | 0.521 | 0.608 | 0.577 | 0.491 | 0.523 | 0.569 | 0.535 | 0.603 | 0.827 | 0.884 | 0.743 | 0.771 | 0.558
14 | NCI-H1734 | 0.948 | 0.796 | 0.858 | 0.961 | 0.704 |  | 0.247 | 0.248 | 0.264 | 0.267 | 0.362 | 0.419 | 0.425 | 0.448 | 0.29 | 0.959 | 0.82 | 0.917 | 0.911 | 0.501
15 | SK-MES-1 | 1.17 | 1.13 | 1.05 | 1.1 | 0.742 | 0.909 | 0.978 | 0.838 | 0.886 | 0.511 | 0.705 | 0.679 | 0.705 | 0.606 | 0.57 | 1.27 | 1.37 | 1.28 | 1.16 | 1.12
16 | COR-L 105 | 1.08 | 0.934 | 0.921 | 0.874 | 0.396 | 0.324 | 0.338 | 0.315 | 0.339 | 0.351 | 0.627 | 0.481 | 0.447 | 0.528 | 0.198 | 0.866 | 0.755 | 0.739 | 0.64 | 0.264

— the supplement of paper PMC10307832
